{
  "source": "the NIST ThermoML archive (doi:10.1016/j.jct.2008.11.008)",
  "assay": "molar enthalpy of vaporization or sublimation",
  "conditions": "298.15 K; Liquid; Calvet microcalorimetry",
  "note": "± gives the expanded uncertainty stated by the source.",
  "data": [
    {"molecule": "COc1ccccc1Br", "note": "[1-bromo-2-methoxybenzene]", "values": [
      {"measurement": "molar enthalpy", "result": "61.8 ± 2.6", "unit": "kJ/mol"}
    ]},
    {"molecule": "COc1cccc(Br)c1", "note": "[1-bromo-3-methoxybenzene]", "values": [
      {"measurement": "molar enthalpy", "result": "58 ± 2.4", "unit": "kJ/mol"}
    ]},
    {"molecule": "COc1ccc(Br)cc1", "note": "[1-bromo-4-methoxybenzene]", "values": [
      {"measurement": "molar enthalpy", "result": "58.3 ± 2.4", "unit": "kJ/mol"}
    ]}
  ]
}
